Test results as given in patent US9551722B2, “Amyloid binding agents” (The Regents of the University of California, priority 2009, dated 2017).
pKd: −log10 of the molar value. Like-named read-outs stand apart in the source and are kept apart here.

Tests used:
[1] = tested on: amyloid plaques in human tissue from AD cases; assay: Fluorescence imaging of amyloid plaques in tissue sections; settings: frozen AD tissue sections, probe solution 30 min, washed with water
Method: FIGS. 11A-F depict fluorescence images of amyloid plaques in human tissue from AD cases. After the frozen tissue was sectioned and mounted to a glass slide, the tissue was exposed to a solution containing a fluorescent probe for 30 min. The sample was washed with water to eliminate non-specific staining of the tissue, and imaged using an inverted epi-fluorescence microscope. The images reveal the location of plaques that were stained with A) compound 27, B) compound 28, C) compound 29, D) compound 30, E) compound 31, or F) compound 33.

aggregated Aβ42 peptides = molecular target: T1, aggregated Aβ42 peptides (Homo sapiens, UniProt P05067); assay: Apparent binding constant (Kd) of probes 27-31, 33 by fluorescence intensity vs concentration; settings: probe 1.25, 2.5, 5.0, 10 μM in nano-pure water, 5 μM pre-aggregated Aβ42; for pKd: read-out: Kd
T1 construct: preaggregated Aβ(1-42) peptides
Method: We also measured the apparent binding constants (Kd) of the probes to aggregated Aβ42 peptides. The fluorescent intensity of each probe was measured in concentrations of 1.25, 2.5, 5.0 and 10 μM in nano-pure water, mixed with 5 μM of the pre-aggregated Aβ42 peptides. Zhao, X.; Yang, J., ACS Chem. Neurosc. 1, (10), 655-660. […] On the other hand, a decrease of the Kd value was observed upon chemically altering the electron donor of the ANCA scaffold. […] FIGS. 10A-F show plots of the fluorescence intensity (at λ=525 nm) of compounds 27-31 and […], respectively, as a function of the concentration in the presence of aggregated Aβ42 peptides (5 μM) in solution.

[2] = molecular target: T2, aggregated Aβ(1-42) peptides (Homo sapiens, UniProt P05067); assay: Fluorescence of probes 27-31, 33 before and after mixing with aggregated Aβ42; type: binding; settings: 4 μM probe; for Em. max (nm) after / Exc. max (nm) after / Fold increase (emission intensity after binding): 5 μM aggregated Aβ(1-42); for Em. max (nm) before / Exc. max (nm) before: nano-pure water (5% DMSO), without Aβ
T2 construct: preaggregated Aβ(1-42) peptides
Method: Aggregated Aβ peptide was prepared by dissolving Aβ(1-42) in PBS pH 7.4 to a final concentration of 100 μM. This solution was magnetically stirred at 1200 rpm for 3 days at room temperature. The 100 μM Aβ(1-42) stock solution in PBS was aliquoted and frozen at −10° C. for up to 4 weeks without noticeable change in its property. 15 μL of the pre-aggregated Aβ(1-42) was added to 285 μL of the probe (5% DMSO in nano-pure water) to attain a final concentration of 5 μM Aβ(1-42) and 4 μM of the probe. The solution was transferred to a […] cuvette and the fluorescent measured. FIGS. 9A-F show fluorescence excitation spectra of Cmpds 27-31 and 33, respectively.
LeVine III, H., Protein Sci. 1993, 2, (3), 404-410. Along these lines, we compared the fluorescent properties of 27-31 or 33 in aqueous solution with or without the presence of aggregated Aβ42 peptides. Specifically, we measured the fluorescent properties of each dye at 4 μM concentration in nano pure water, before and after mixing with aggregated Aβ42 peptide (final concentration peptide=5 μM). As it is shown in table 5, in all cases we observed a significant increase (3 to 9-fold) in the intensity of the emission spectra of the probes upon association with the aggregated amyloid peptides. This intensity increase was also accompanied with a blue shift in the emission spectra of around 5-50 nm. […] FIG. 9C provides a representative example of the fluorescent properties of compound 29.

T1 sequence (P05067 672-713 limits assumed): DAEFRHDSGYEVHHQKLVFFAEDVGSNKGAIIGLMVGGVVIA
T2 sequence (P05067 672-713 limits assumed): as above

SMILES	Staining of amyloid plaques (fluorescence image) [1]	pKd (aggregated Aβ42 peptides)	Em. max (nm) after [2] [nm]	Exc. max (nm) after [2] [nm]	Fold increase (emission intensity after binding) [2] [fold]	Em. max (nm) before [2] [nm]	Exc. max (nm) before [2] [nm]	Kd (aggregated Aβ42 peptides)
COCCOCCOCCOC(=O)/C(C#N)=C/c1ccc2cc(N3CCOCC3)ccc2c1 [Compound 29, (E)-2-(2-(2-methoxyethoxyl)ethoxy)ethyl 2-cyano-3-(2-morpholinonapthalen-6-yl)acrylate]	stained	4.86	525	380	5.1	530	400	–
COCCOCCOCCOC(=O)/C(C#N)=C/c1ccc2cc(N3CCCCC3)ccc2c1 [Compound 27, (E)-2-(2-(2-methoxyethoxyl)ethoxy)ethyl 2-cyano-3-(2-(piperidin-1-yl)napthalen-6-yl)acrylate]	–	5.85	–	–	–	–	–	highest affinity
COCCOCCOCCOC(=O)/C(C#N)=C/c1ccc2cc(N3CCN(C)CC3)ccc2c1 [Compound 28, (E)-2-(2-(2-methoxyethoxyl)ethoxy)ethyl 2-cyano-3-(2-(4-methylpiperazin-1-yl)napthalen-6-yl) acrylate]	stained	5.34	530	385	4.9	580	400	–
N#C/C(=C\c1ccc2cc(N3CCCCC3)ccc2c1)C(=O)OCC(O)CO (stereo not drawn) [Compound 33, (E)-2,3-dihydroxypropyl 2-cyano-3-(2-(piperidin-1-yl)naphthalene-6-yl)acrylate]	stained	5.80	535	410	7.2	540	410	highest affinity
COCCOCCOCCOC(=O)/C(C#N)=C/c1ccc2cc(NCCN3CCOCC3)ccc2c1 [Compound 30, (E)-2-(2-(2-methoxyethoxyl)ethoxy)ethyl 3-(2-(2-morpholinoethylamino)naphthalen-6-yl)-2-cyano acrylate]	stained	5.17	540	430	2.9	570	430	–
COCCOCCOCCOCCOC(=O)/C(C#N)=C/c1ccc2cc(N3CCCCC3)ccc2c1 [Compound 31, (E)-2-(2-(2-(2-methoxyethoxyl)ethoxy)ethoxy)ethyl 2-cyano-3-(2-(piperidin-1-yl)napthalen-6-yl) acrylate]	–	5.80	–	–	–	–	–	highest affinity
